In patent publication US7452691B2, “Device and method for detecting antibiotic inactivating enzymes” (priority 2005, dated 2008):
≈ marks a conversion by molar mass, not a printed value. Read-outs that look alike come from different tables or passages of the source.

What was measured:
E. coli V1104 = experiment: Spectrophotometric hydrolysis assay of β-lactamase released by permeabilizing agent, nitrocefin as substrate; format: cell-based
Description: (§1) H., et al., A.A.C. 1:283-288 (1972). […] The nitrocefin was prewarmed to 37° C.
The experiment in Example 1 was repeated using E. coli V1104 to evaluate a variety of permeabilizing agents. Nitrocefan was the hydrolysis substrate.

TEM-46 = format: cell-based; settings: enzyme TEM-46; indirect method
Description: (§3) The indirect method was performed essentially as described in Example 4, except the antibiotic disks were as indicated. An indentation of a zone of inhibition around the antibiotic dish was interpreted as positive for presence of antibiotic-inactivating factor.

PSE-1 = PSE-1 (Pseudomonas aeruginosa, UniProt Q03170); experiment: Indirect reagent disk test, antibiotic inactivation; format: cell-based; settings: enzyme PSE-1; indirect method
Description: (§2) • 1. […] Performing and Interpreting the Test • 1.

Class A Carbapenemases = experiment: Indirect TE disk test for detection of Class A Carbapenemases; format: cell-based; settings: for CACs detected by indirect TE disk test: 21 CAC-producing strains, E. coli ATCC 25922 lawn; for False positive results in indirect TE disk test: strains producing non-CAC enzymes (metallo/OXA carbapenemases, AmpC, ESBLs)
Description: Methods: 21 strains that produced Class A Carbapenemases (“CACs”) comprising 12 Klebsiella pneumoniae, 5 Enterobacter cloacae, 2 Escherichia coli, and 2 Serratia marcescens; 10 strains of Acinetobacter baumannii, Pseudomonas aeruginosa, and S. marcescens that produced either a metallo-beta-lactamase or an OXA carbapenemases, and 11 strains of Enterobacteriaceae that produced either AmpC β-lactamases or ESBLs were investigated. The test was performed essentially as described in Example 5, with any changes noted below. The indirect test involved inoculation of the surface of a Mueller-Hinton (MH) agar plate with a lawn of E. coli ATCC 25922, not the test organism. Immediately prior to incubation, a premoistened TE disk was inoculated with several colonies of the test organism and placed face down on the MH agar adjacent to a disk containing one of the carbapenems, imipenem (IPM), meropenem (MER), or ertapenem (ERT). After overnight incubation, an indentation of the zone inhibition was interpreted as positive.

SHV-1 = SHV-1 (Klebsiella pneumoniae, UniProt P0AD64); experiment: Indirect reagent disk test, antibiotic inactivation; format: cell-based; settings: enzyme SHV-1; indirect method
Description: (§4) A solution of equal parts of physiological saline and Tris EDTA (Sigma Chemicals) is made. • 2. A 20 microliter aliquot of the permeabilizing agent solution was placed onto a filter paper disk and allowed to dry. […] The filter paper disk impregnated with the permeabilizing agent was rehydrated with 20 microliters of sterile physiological saline. • 2. Using a cotton swab or loop, a test organism was rubbed onto the rehydrated disk. • 3. A Mueller Hinton Agar plate was inoculated with a 0.5 McFarland of E. coli ATCC 25922. • 4. A cefoxitin disk was placed onto the surface of the agar plate. The rehydrated disk inoculated with the test organism next was placed next to the cefoxitin disk, at a distance of about 0.5-1.0 mm. • 5. The agar plate was incubated at 37° C. for about 16 hours, or overnight. • 6. Distortion of the cefoxitin zone was interpreted as a positive result (i.e., the presence of an antibiotic-inactivating factor was detected), whereas lack of distortion of the cefoxitin zone was interpreted as a negative result.
as §3

OXA-3 = OXA-3 (Pseudomonas aeruginosa, UniProt Q51429); experiment: as above; format: cell-based; settings: enzyme OXA-3; indirect method
Description: as §4, §3

SHV-4 = SHV-4 (Klebsiella pneumoniae, UniProt P37323); experiment: as above; format: cell-based; settings: enzyme SHV-4; indirect method
Description: as §4, §3

FOX-1 = experiment: as above; format: cell-based; settings: enzyme FOX-1; indirect method
Description: as §4, §3

OXA-2 = OXA-2 (Escherichia coli, UniProt P0A1V9); experiment: as above; format: cell-based; settings: enzyme OXA-2; indirect method
Description: as §3

OXA-4 = experiment: as above; format: cell-based; settings: enzyme OXA-4; indirect method
Description: as §3

OXA-5 = OXA-5 (Pseudomonas aeruginosa, UniProt Q00982); experiment: as above; format: cell-based; settings: enzyme OXA-5; indirect method
Description: as §3

SHV-2 = SHV-2 (Escherichia coli, UniProt P0A9Z7); experiment: as above; format: cell-based; settings: enzyme SHV-2; indirect method
Description: as §4, §3

OXA-6 = experiment: as above; format: cell-based; settings: enzyme OXA-6; indirect method
LAT-1 = experiment: as above; format: cell-based; settings: enzyme LAT-1; indirect method; further: key: P, positive; N, negative; WP, weak positive (slight flattening); ?, results were questionable
Description: as §2

L-1 = L-1 (Stenotrophomonas maltophilia, UniProt P52700); experiment: as above; format: cell-based; settings: enzyme L-1; indirect method; further: key: P, positive; N, negative; WP, weak positive (slight flattening); ?, results were questionable
Description: as §2

Klebsiella spp. isolates = experiment: Antimicrobial susceptibility by NCCLS microdilution (MIC); format: cell-based
Description: Thirty recent isolates of Klebsiella spp. were collected from patients in United States hospitals.
Antimicrobial susceptibility was determined by NCCLS microdilution methodology using an investigational Microscan dehydrated panel.

AmpC = settings: enzyme AmpC; indirect method
Description: as §4
(§5) An indentation of a zone of inhibition around the antibiotic dish was interpreted as positive for presence of antibiotic-inactivating factor.

ACT-1 = experiment: Indirect reagent disk test, antibiotic inactivation; format: cell-based; settings: enzyme ACT-1; indirect method
Description: as §4, §5

E. coli MISC 208 = experiment: Spectrophotometric hydrolysis assay of β-lactamase released by permeabilizing agent, cefaclor as substrate; format: cell-based
Description: as §1
The experiment in Example 1 was repeated using E. coli MISC 208 and cefaclor as substrate in the hydrolysis assays.

[1] = tested on: β-lactamases of Klebsiella isolates (AmpC); experiment: Isoelectric focusing with inhibitor overlays; format: biochemical, Klebsiella spp.; settings: nine of ten positive Klebsiella isolates; 1000 μM overlay
Description: Crude sonicates were subjected to analytical isoelectric focusing (IEF) on an ampholine polyacrylamide gel (pH range 3.5-9.5) on a flatbed apparatus (Multiphor LKB). Inhibitor overlays of the IEF gel were performed with 1000 μM clavulanic acid and cloxacillin.

OXA-7 = OXA-7 (Escherichia coli, UniProt P35695); experiment: Indirect reagent disk test, antibiotic inactivation; format: cell-based; settings: enzyme OXA-7; indirect method
Description: as §4, §5

[2] = tested on: E. coli MISC 208 (which produces the extended spectrum β-lactamase SHV-2); settings: 0° C.
Description: In this Example, E. coli MISC 208 (which produces the extended spectrum β-lactamase SHV-2) was used as a test organism and nitrocefin was the substrate in spectrophotometric hydrolysis assays. The E. coli strain was harvested directly into 100 microliters of Mueller Hinton Broth and mixed with 100 microliters of the permeabilizing agent.
In the hydrolysis assay, units of activity are calculated as:
Briefly, a 100 μM solution of nitrocefin was used as a substrate. The nitrocefin was prewarmed to 37° C. The hydrolysis assay was performed at 37° C. at a wavelength of 389.5 with an extinction coefficient of −0.024. An appropriate cuvette was filled with 0.9 ml of the prewarmed nitrocefin substrate and 100 ul of permeabilized bacterial suspension was added. The contents of the cuvette were immediately mixed by inversion and the cuvette was placed in a spectrophotometer. Absorbance was assayed at 5-second intervals for up to 5 minutes with the 37° C. temperature maintained by means of a circulating water bath that warmed the cuvette block. When the assay was complete, the activity was calculated according to the above formula.

Chain of OXA-3 (Q51429 22-275): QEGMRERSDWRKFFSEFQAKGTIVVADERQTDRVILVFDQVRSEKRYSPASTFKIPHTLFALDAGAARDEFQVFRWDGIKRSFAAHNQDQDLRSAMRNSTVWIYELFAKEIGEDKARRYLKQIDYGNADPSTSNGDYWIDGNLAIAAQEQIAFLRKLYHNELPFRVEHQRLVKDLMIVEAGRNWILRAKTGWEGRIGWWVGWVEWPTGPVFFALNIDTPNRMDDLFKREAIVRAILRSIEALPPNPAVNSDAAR
Chain of PSE-1 (Q03170 18-288): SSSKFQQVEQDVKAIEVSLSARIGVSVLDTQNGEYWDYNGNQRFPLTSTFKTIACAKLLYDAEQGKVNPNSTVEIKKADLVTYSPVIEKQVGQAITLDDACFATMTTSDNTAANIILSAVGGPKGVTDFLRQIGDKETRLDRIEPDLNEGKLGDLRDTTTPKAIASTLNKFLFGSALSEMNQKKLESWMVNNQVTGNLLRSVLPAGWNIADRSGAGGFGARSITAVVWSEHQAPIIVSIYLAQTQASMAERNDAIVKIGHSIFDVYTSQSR
Chain of L-1 (P52700 34-290): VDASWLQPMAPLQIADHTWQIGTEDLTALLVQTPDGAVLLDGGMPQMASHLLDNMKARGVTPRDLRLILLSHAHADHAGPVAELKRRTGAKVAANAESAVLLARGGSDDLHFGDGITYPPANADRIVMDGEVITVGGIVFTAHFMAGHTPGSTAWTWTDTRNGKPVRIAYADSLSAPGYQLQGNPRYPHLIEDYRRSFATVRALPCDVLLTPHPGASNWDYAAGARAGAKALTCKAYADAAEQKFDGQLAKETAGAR
Chain of OXA-5 (Q00982 20-267): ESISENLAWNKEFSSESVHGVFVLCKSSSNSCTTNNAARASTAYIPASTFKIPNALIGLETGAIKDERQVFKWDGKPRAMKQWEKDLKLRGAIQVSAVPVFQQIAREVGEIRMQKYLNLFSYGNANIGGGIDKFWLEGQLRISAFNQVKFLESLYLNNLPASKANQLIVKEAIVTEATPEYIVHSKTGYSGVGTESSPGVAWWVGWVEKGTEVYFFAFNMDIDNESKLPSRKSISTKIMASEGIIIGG
Chain of SHV-1 (P0AD64 22-286): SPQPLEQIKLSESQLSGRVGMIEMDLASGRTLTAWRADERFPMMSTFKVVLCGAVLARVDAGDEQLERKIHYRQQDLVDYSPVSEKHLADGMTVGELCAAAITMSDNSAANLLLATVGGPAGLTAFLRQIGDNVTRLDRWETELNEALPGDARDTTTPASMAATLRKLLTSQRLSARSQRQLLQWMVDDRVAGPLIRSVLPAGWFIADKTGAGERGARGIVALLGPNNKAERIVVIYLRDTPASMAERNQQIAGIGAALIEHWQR
Chain of OXA-2 (P0A1V9 22-275): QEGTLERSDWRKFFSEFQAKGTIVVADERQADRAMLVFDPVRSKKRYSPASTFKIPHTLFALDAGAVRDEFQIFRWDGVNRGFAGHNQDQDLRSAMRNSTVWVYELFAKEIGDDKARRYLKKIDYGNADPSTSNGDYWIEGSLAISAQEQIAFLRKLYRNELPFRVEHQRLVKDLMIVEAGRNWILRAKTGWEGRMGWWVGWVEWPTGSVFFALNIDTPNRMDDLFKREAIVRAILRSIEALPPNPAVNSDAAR
Chain of SHV-2 (P0A9Z7 22-286): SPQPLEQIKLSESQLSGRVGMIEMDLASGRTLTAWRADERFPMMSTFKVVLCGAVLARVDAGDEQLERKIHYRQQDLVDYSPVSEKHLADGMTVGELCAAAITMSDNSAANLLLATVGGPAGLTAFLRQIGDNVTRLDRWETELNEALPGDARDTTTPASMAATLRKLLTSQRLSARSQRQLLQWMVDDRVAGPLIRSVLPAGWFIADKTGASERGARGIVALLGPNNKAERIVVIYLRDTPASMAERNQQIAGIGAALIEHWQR
Chain of SHV-4 (P37323 whole entry): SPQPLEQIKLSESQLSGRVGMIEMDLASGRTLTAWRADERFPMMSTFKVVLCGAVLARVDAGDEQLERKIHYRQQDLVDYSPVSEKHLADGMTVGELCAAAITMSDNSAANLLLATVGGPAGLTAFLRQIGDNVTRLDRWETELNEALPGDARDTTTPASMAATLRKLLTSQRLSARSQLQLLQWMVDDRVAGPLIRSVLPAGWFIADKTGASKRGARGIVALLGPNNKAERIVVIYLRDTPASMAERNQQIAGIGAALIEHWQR
Chain of OXA-7 (P35695 21-266): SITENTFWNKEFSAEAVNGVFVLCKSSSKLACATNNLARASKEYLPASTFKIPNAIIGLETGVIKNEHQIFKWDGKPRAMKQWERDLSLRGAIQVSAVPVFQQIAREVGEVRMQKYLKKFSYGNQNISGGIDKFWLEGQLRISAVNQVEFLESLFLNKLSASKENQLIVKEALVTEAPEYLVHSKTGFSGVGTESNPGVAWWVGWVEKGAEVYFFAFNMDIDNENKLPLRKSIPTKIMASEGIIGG

Compound | Reagent disk test result (indentation of inhibition zone = antibiotic inactivation) (TEM-46) | Reagent disk test result (indentation of inhibition zone = antibiotic inactivation) (PSE-1) | Reagent disk test result (indentation of inhibition zone = antibiotic inactivation) (OXA-3) | Reagent disk test result (indentation of inhibition zone = antibiotic inactivation) (OXA-2) | Reagent disk test result (indentation of inhibition zone = antibiotic inactivation) (OXA-4) | Reagent disk test result (indentation of inhibition zone = antibiotic inactivation) (OXA-5) | Reagent disk test result (indentation of inhibition zone = antibiotic inactivation) (OXA-6) | Reagent disk test result (indentation of inhibition zone = antibiotic inactivation) (L-1) | also measured
CCN1CCN(C(=O)N[C@@H](C(=O)N[C@@H]2C(=O)N3[C@@H]2SC(C)(C)[C@@H]3C(=O)O)c2ccccc2)C(=O)C1=O [Piperacillin] |  |  |  |  |  |  |  |  | Units of β-lactamase Activity (Nitrocefin as substrate) (E. coli V1104): 202
CO[C@@]1(NC(=O)CSCC#N)C(=O)N2C(C(=O)O)=C(CSc3nnnn3C)CS[C@@H]21 [CMZ, cefmetazole] | N | P^m |  |  |  |  |  |  | 
C[C@@H](O)[C@H]1C(=O)N2C(C(=O)O)=C(S[C@@H]3CN[C@H](C(=O)Nc4cccc(C(=O)O)c4)C3)[C@H](C)[C@H]12 [ERT, ertapenem] |  |  |  |  |  |  |  |  | CACs detected by indirect TE disk test (Class A Carbapenemases): all; False positive results in indirect TE disk test (Class A Carbapenemases): no false positive results
C[C@@H](O)[C@H]1C(=O)N2C(C(=O)O)=C(S[C@@H]3CN[C@H](C(=O)N(C)C)C3)[C@H](C)[C@H]12 [MEM, meropenem] | N |  | N | WP? | N | N | N | N | Reagent disk test result (indentation of inhibition zone = antibiotic inactivation) (SHV-1): N; Reagent disk test result (indentation of inhibition zone = antibiotic inactivation) (SHV-4): N; CACs detected by indirect TE disk test (Class A Carbapenemases): 19/21; False positive results in indirect TE disk test (Class A Carbapenemases): no false positive results; Reagent disk test result (indentation of inhibition zone = antibiotic inactivation) (FOX-1): N; Reagent disk test result (indentation of inhibition zone = antibiotic inactivation) (SHV-2): N; Reagent disk test result (indentation of inhibition zone = antibiotic inactivation) (LAT-1): N
CC1(C)S[C@@H]2[C@H](NC(=O)[C@H](N)c3ccccc3)C(=O)N2[C@H]1C(=O)O [AM, ampicillin] |  |  |  |  |  |  |  | N | 
CO/N=C(\C(=O)N[C@@H]1C(=O)N2C(C(=O)O)=C(COC(C)=O)CS[C@H]12)c1csc(N)n1 [CTX, cefotaxime] | N | N | N | N |  | N | WP? | N | 
CO[C@@]1(NC(=O)Cc2cccs2)C(=O)N2C(C(=O)O)=C(COC(N)=O)CS[C@@H]21 [FOX, cefoxitin] | N | N^n |  |  | N | N | N | N | Reagent disk test result (indentation of inhibition zone = antibiotic inactivation) (SHV-1): N; Reagent disk test result (indentation of inhibition zone = antibiotic inactivation) (SHV-4): N; MIC (Klebsiella spp. isolates; thirty Klebsiella spp. isolates): ≥ 16 µg/mL; MIC (Klebsiella spp. isolates; thirty isolates of Klebsiella spp., read-out: MIC): ≥ 16 µg/mL; Reagent disk test result (indentation of inhibition zone = antibiotic inactivation) (SHV-2): N
C[C@H]1[C@H](NC(=O)/C(=N\OC(C)(C)C(=O)O)c2csc(N)n2)C(=O)N1S(=O)(=O)O [Aztreonam, aztreonam] |  | N | N | N | N | N | N | N | Reagent disk test result (indentation of inhibition zone = antibiotic inactivation) (AmpC): N; Reagent disk test result (indentation of inhibition zone = antibiotic inactivation) (SHV-1): N; Reagent disk test result (indentation of inhibition zone = antibiotic inactivation) (FOX-1): N; Reagent disk test result (indentation of inhibition zone = antibiotic inactivation) (ACT-1): N; Units of β-lactamase Activity (Nitrocefin as substrate) (E. coli V1104): 210; Reagent disk test result (indentation of inhibition zone = antibiotic inactivation) (LAT-1): N
benzalkonium chloride |  |  |  |  |  |  |  |  | Units of β-lactamase Activity (Cefaclor as substrate) (E. coli MISC 208; agent 200 μg/ml): 16
CO/N=C(\C(=O)N[C@@H]1C(=O)N2C(C(=O)O)=C(CSc3nc(=O)c(O)nn3C)CS[C@H]12)c1csc(N)n1 [CRO, ceftriaxone] |  | N | N | N | N | N |  | N | 
C[C@@H](O)[C@H]1C(=O)N2C(C(=O)O)=C(SCCN=CN)C[C@H]12 [IPM, imipenem] | N |  |  |  | N |  | N |  | Reagent disk test result (indentation of inhibition zone = antibiotic inactivation) (FOX-1): N; MIC (Klebsiella spp. isolates; the one positive Klebsiella isolate producing a carbapenem-hydrolyzing enzyme, read-out: MIC): 64 µg/mL (≈ 214 µM)
Cc1onc(-c2ccccc2Cl)c1C(=O)N[C@@H]1C(=O)N2[C@@H]1SC(C)(C)[C@@H]2C(=O)O [cloxacillin] |  |  |  |  |  |  |  |  | Inhibition of β-lactamases (pIs 7.2, 7.7 or ≧9.0) in IEF inhibitor overlay [1]: inhibited
Polymyxin B |  |  |  |  |  |  |  |  | Units of β-lactamase Activity (Cefaclor as substrate) (E. coli MISC 208; agent 10 μg/ml): 3.8; Units of β-lactamase Activity (Cefaclor as substrate) (E. coli MISC 208; agent 30 μg/ml): 15
CC(C)(O/N=C(\C(=O)N[C@@H]1C(=O)N2C(C(=O)[O-])=C(C[n+]3ccccc3)CS[C@H]12)c1csc(N)n1)C(=O)O [Ceftazidime, ceftazidime] |  | N | N | N | N | N | N | N | Reagent disk test result (indentation of inhibition zone = antibiotic inactivation) (SHV-1): N; Reagent disk test result (indentation of inhibition zone = antibiotic inactivation) (OXA-7): N; Reagent disk test result (indentation of inhibition zone = antibiotic inactivation) (FOX-1): N; Units of β-lactamase Activity (Nitrocefin as substrate) (E. coli V1104): 196
NC(CO)(CO)CO [Tris] |  |  |  |  |  |  |  |  | Units of β-lactamase Activity (Nitrocefin as substrate) [2]: 41
